Test results from US11135184B2, “Formulations for epidermal repair” (CLARIDEI LABORATORIES, INC., priority 2013, dated 2021).

How the values were obtained:
[1] = system: 11β-hydroxysteroid dehydrogenase; conditions: cited from earlier work
[2] = cited from earlier work
[3] = system: histamine-induced scratching behavior; conditions: applied to the skin of mice; cited from earlier work
guinea pig ileum = conditions: cited from earlier work
NF-kappaB = conditions: histamine-stimulated skin; cited from earlier work
[4] = system: lymphocytic transformation; conditions: cited from earlier work
[5] = system: serine palmitoyltransferase; conditions: cited from earlier work
atopic dry skin = conditions: cited from earlier work
[6] = system: 3′-5′ cyclic AMP phosphodiesterase; conditions: cited from earlier work
[7] = system: cutaneous lupus erythematosus; assay: prior treatment of a patient with cutaneous lupus erythematosus; type: in vivo, human; conditions: one patient
Text: A patient presented with a three year history of cutaneous lupus erythematosus. They had been suffering from systemic lupus erythematosus for some time before the rash that is characteristic of cutaneous lupus erythematosus appeared on their chest, arms, neck and face.
Prior to treatment with a treatment regime utilizing the formulations of the present disclosure, this patient had been treated with several different treatment regimens representing the standard of care for cutaneous lupus erythematosus patients. […] All attempts to reduce the patient's suffering from cutaneous lupus erythematosus had brought little to no relief.

[8] = system: ultraviolet radiation damage; conditions: in vitro model of cutaneous photoaging; cited from earlier work
Δ4β-reductase = target: T1, Δ4β-reductase (Homo sapiens, UniProt P51857); conditions: in vitro; cited from earlier work
T1 sequence (P51857 1-326): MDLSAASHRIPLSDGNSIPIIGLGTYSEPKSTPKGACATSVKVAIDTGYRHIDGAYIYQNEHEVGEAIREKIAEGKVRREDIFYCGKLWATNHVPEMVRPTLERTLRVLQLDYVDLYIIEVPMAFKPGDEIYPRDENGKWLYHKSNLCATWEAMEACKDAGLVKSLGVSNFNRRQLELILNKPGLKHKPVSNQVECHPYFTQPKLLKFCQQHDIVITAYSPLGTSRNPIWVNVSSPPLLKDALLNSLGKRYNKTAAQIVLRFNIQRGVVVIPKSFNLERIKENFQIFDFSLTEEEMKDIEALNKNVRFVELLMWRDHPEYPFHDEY

Staphylococcus aureus = conditions: in vitro; cited from earlier work
contact dermatitis = conditions: mice, cited from earlier work
Candida albicans = conditions: in vitro; cited from earlier work
Mycobacterium smegmatis = conditions: in vitro; cited from earlier work

## CC1(C)[C@@H](OC(=O)CCC(=O)O)CC[C@]2(C)[C@H]3C(=O)C=C4[C@@H]5C[C@@](C)(C(=O)O)CC[C@]5(C)CC[C@@]4(C)[C@]3(C)CC[C@@H]12 [Carbenoxolone]
[1]
  inhibition of 11β-hydroxysteroid dehydrogenase: inhibits

## O=C(O)[C@H](O)[C@@H](O)[C@H](O[C@@H]1O[C@H](CO)[C@H](O)[C@H](O)[C@H]1O)[C@H](O)CO [Lactobionic acid, 4-O-β-galactopyranosyl-β-gluconic acid]
[2]
  pKa: 3.8

## CCCCCCCCCCCCCCCCCC(=O)N[C@@H](CO)[C@H](O)[C@H](O)CCCCCCCCCCCCCC [N-stearoyl-phytosphingosine, N-Stearoyl-phytosphingosine]
[3]
  histamine-induced scratching behavior: effectively inhibited
Guinea pig ileum
  anti-histamine effects in the Magnus test: potent anti-histamine effects
NF-kappaB
  activation of the transcription factor NF-kappaB: inhibited

## NC(=O)c1cccnc1 [Niacinamide]
[4]
  antigen-induced lymphocytic transformation: suppress
[5]
  de novo synthesis of ceramides (e.g., glucosylceramide and sphingomyelin): stimulating
  expression of serine palmitoyltransferase: up-regulated
Atopic dry skin; atopic dermatitis
  transepidermal water loss: decrease
Atopic dry skin; atopic dry skin
  moisturizer effectiveness compared with white petrolatum: more effective moisturizer than white petrolatum
[6]
  inhibition of 3′-5′ cyclic AMP phosphodiesterase: Inhibit

## CC(=O)Oc1ccccc1C(=O)O [aspirin]
[7]; orally administered
  effect on cutaneous lupus erythematosus: little or no effect

## C[C@H](CCC(=O)O)[C@H]1CC[C@H]2[C@@H]3[C@H](O)C[C@@H]4C[C@H](O)CC[C@]4(C)[C@H]3CC[C@]12C [chenodeoxycholic acid]
[1]
  inhibition of 11β-hydroxysteroid dehydrogenase: inhibits

## CCN(CC)CCCC(C)Nc1ccnc2cc(Cl)ccc12 (centres unmarked) [chloroquin]
[7]; orally administered
  effect on cutaneous lupus erythematosus: little or no effect

## C[C@]12CCC(=O)C=C1CC[C@@H]1[C@@H]2C(=O)C[C@@]2(C)[C@H]1CC[C@]2(O)C(=O)CO [cortisone]
[7]; shots
  effect on cutaneous lupus erythematosus: little or no effect

## O=C1O[C@H](CO)[C@@H](O)[C@H](O)[C@H]1O [glucono delta-lactone, Glucono delta-lactone]
[8]
  protection against ultraviolet radiation: photoprotective activity

## CC1(C)[C@@H](O)CC[C@]2(C)[C@H]3C(=O)C=C4[C@@H]5C[C@@](C)(C(=O)O)CC[C@]5(C)CC[C@@]4(C)[C@]3(C)CC[C@@H]12 [glycyrrhetinic acid, 18β-glycyrrhetinic acid]
Δ4β-reductase
  inhibition of Δ4β-reductase: inhibit
[1]
  inhibition of 11β-hydroxysteroid dehydrogenase: inhibit

## CC1(C)[C@@H](O[C@H]2O[C@H](C(=O)O)[C@@H](O)[C@H](O)[C@H]2O[C@@H]2O[C@H](C(=O)O)[C@@H](O)[C@H](O)[C@H]2O)CC[C@]2(C)[C@H]3C(=O)C=C4[C@@H]5C[C@@](C)(C(=O)O)CC[C@]5(C)CC[C@@]4(C)[C@]3(C)CC[C@@H]12 [glycyrrhizic acid, Glycyrrhizic acid]
Staphylococcus aureus
  growth of Staphylococcus aureus: inhibit the growth
Contact dermatitis; administered orally
  effect on contact dermatitis: ineffective
Contact dermatitis; given intraperitoneally
  effectiveness against contact dermatitis compared with prednisolone: more effective than prednisolone
  suppression of contact dermatitis: suppress
Candida albicans
  growth of Candida albicans: inhibit the growth
Mycobacterium smegmatis
  growth of Mycobacterium smegmatis: inhibit the growth

## CCCCCCCCCCCCCC[C@@H](O)[C@@H](O)[C@@H](N)CO [phytosphingosine, Phytosphingosine]
[3]
  histamine-induced scratching behavior: effectively inhibited
Guinea pig ileum
  anti-histamine effects in the Magnus test: potent anti-histamine effects
NF-kappaB
  activation of the transcription factor NF-kappaB: inhibited

## CCN(CCO)CCCC(C)Nc1ccnc2cc(Cl)ccc12.O=S(=O)(O)O (centres unmarked) [plaquenyl]
[7]; orally administered
  effect on cutaneous lupus erythematosus: little or no effect

## C[C@]12C=CC(=O)C=C1CC[C@@H]1[C@@H]2C(=O)C[C@@]2(C)[C@H]1CC[C@]2(O)C(=O)CO [prednisone]
[7]; orally administered
  effect on cutaneous lupus erythematosus: little or no effect
